Measured values published in patent US10716773B2, “Compositions comprising 15-HEPE and methods of treating or preventing cancer and neurologic disease” (Afimmune Limited, priority 2015, dated 2020).
Several values for one entry are separate records, joined by “and”; a condition that tells them apart may be missing. Equal values may be shown once.

Tests used:
[1] = system: normal human dermal fibroblasts (NHDF); assay: MTT reduction assay and observation of the cell layers: viability of fibroblasts after 48 hours of incubation; assay type: cell-based; conditions: for Visability (%): single replicates; as to Morpholigical observations: key: +: normal population; +/−: growth reduction; −: toxicity; 0: cell mortality; grains of compound; opacity of the compound; *: morphological modification; agglutinated cells
Description: Normal human dermal fibroblasts (NHDF) were used at the 8th passage. Cells were cultured at 37° C., 5% CO2 in DMEM supplemented with L-glutamine 2 mM, 50 U/ml Penicillin, 50 μg/ml Streptomycin and 10% Foetal calf serum (FCS).

caspase-3/7 = assay: Staurosporine-induced caspase-3/7 activity in NHDF, measured in cell lysates with fluorogenic substrate Ac-DEVD-AMC; assay type: cell-based, human; conditions: staurosporine-stimulated NHDF; for Caspase-3/7 activity (Fluorescence 380 nm/440 nm) / Caspase-3/7 activity - Background (Fluorescence 380 nm/440 nm) / Caspese-3/7 activity/proteins: single replicates
Description: The potential inhibitory effect of compounds 15(S)-HEPE EE and EPA EE was evaluated on staurosporine-induced caspase activation in normal human dermal fibroblasts (NHDF). […] Normal human dermal fibroblasts (NHDF) were used at the 8th passage. […] Fibroblasts were seeded in 24-well plates and cultured for 24 hours in culture medium. The medium was then removed and replaced by assay medium containing or not (control) the test compounds and cells were pre-incubated for 24 hours. […] The cells were then incubated for 24 hours. Non-stimulated controls (without inducer) were performed in parallel. All experimental conditions were performed in n=3. […] Enzyme activity assay and protein quantification assay were performed in separated plates due to the fact that DTT used in the lysis buffer for caspase activity interferes with protein quantification. […] Lysis buffer: HEPES buffer (pH 7.4) containing EDTA, Triton X-100, NP-40 and DTT Assay Buffer: HEPES buffer (pH 7.4) containing NaCl, EDTA, NP-40, glycerol and DTT Substrate: Ac-DEVD-AMC, tested at 10 μM (stock solution at 1.5 mM in DMSO) Reference inhibitor: […] Ac-DEVD-AMC is a synthetic tetrapeptide fluorogenic substrate for caspase-3 and caspase-7 and contains the amino acid sequence of the PARP cleavage site at […]. […] Enzymes cleave the tetrapeptide between D and AMC resulting in the release of fluorogenic AMC, which can be quantified with a spectrofluorometer. […] In parallel, an additional control (assay buffer containing the substrate) was also performed to determine the background signal. At the end of incubation, the fluorescence intensity emitted by the reaction product (cleaved Ac-DEVD-AMC) was measured at wavelengths λex 380 nm and λem 440 nm using a spectrofluorimeter (SPECTRAmax® Gemini, Molecular Devices).

CC/C=C\C/C=C\C/C=C\C/C=C\C/C=C\CCCC(=O)OCC [EPA EE]
Morpholigical observations ([1]; 0.001 μg/ml): +
Visability (%) Mean ([1]; 0.001 μg/ml): 100%
Visability (%) ([1]; 0.001 μg/ml): 99% and 97% and 104%
Morpholigical observations ([1]; 0.01 μg/ml): +
Visability (%) Mean ([1]; 0.01 μg/ml): 98%
Visability (%) ([1]; 0.01 μg/ml): 101% and 94% and 98%
Morpholigical observations ([1]; 0.1 μg/ml): +
Visability (%) Mean ([1]; 0.1 μg/ml): 99%
Visability (%) ([1]; 0.1 μg/ml): 99% (2×) and 98%
Morpholigical observations ([1]; 1 μg/ml): +
Visability (%) Mean ([1]; 1 μg/ml): 97%
Visability (%) ([1]; 1 μg/ml): 95% (2×) and 100%
Morpholigical observations ([1]; 10 μg/ml): +
Visability (%) Mean ([1]; 10 μg/ml): 97%
Visability (%) ([1]; 10 μg/ml): 94% and 98% and 100%
Morpholigical observations ([1]; 30 μg/ml): +
Visability (%) Mean ([1]; 30 μg/ml): 96%
Visability (%) ([1]; 30 μg/ml): 99% and 95% and 93%
Morpholigical observations ([1]; 100 μg/ml): +
Visability (%) Mean ([1]; 100 μg/ml): 100%
Visability (%) ([1]; 100 μg/ml): 102% and 98% and 100%
Morpholigical observations ([1]; 300 μg/ml): +
Visability (%) Mean ([1]; 300 μg/ml): 106%
Visability (%) ([1]; 300 μg/ml): 105% and 107% and 106%
% inhibition (caspase-3/7; 0.001 μg/ml): −31%
% stimulated control (caspase-3/7; 0.001 μg/ml): 128%
Normalized data: Mean (caspase-3/7 activity/proteins) (caspase-3/7; 0.001 μg/ml): 113173 AU/mg
Caspase-3/7 activity (Fluorescence 380 nm/440 nm) (caspase-3/7; 0.001 μg/ml): 1457 AU and 1667 AU and 1637 AU
Caspase-3/7 activity - Background (Fluorescence 380 nm/440 nm) (caspase-3/7; 0.001 μg/ml): 1140 AU and 1350 AU and 1320 AU
Caspese-3/7 activity/proteins (caspase-3/7; 0.001 μg/ml): 100237 AU/mg and 128199 AU/mg and 111084 AU/mg
% inhibition (caspase-3/7; 0.01 μg/ml): −1%
% stimulated control (caspase-3/7; 0.01 μg/ml): 101%
Normalized data: Mean (caspase-3/7 activity/proteins) (caspase-3/7; 0.01 μg/ml): 89425 AU/mg
Caspase-3/7 activity (Fluorescence 380 nm/440 nm) (caspase-3/7; 0.01 μg/ml): 1359 AU and 1476 AU and 1472 AU
Caspase-3/7 activity - Background (Fluorescence 380 nm/440 nm) (caspase-3/7; 0.01 μg/ml): 1042 AU and 1159 AU and 1155 AU
Caspese-3/7 activity/proteins (caspase-3/7; 0.01 μg/ml): 89522 AU/mg and 89043 AU/mg and 89708 AU/mg
% inhibition (caspase-3/7; 0.1 μg/ml): 5%
% stimulated control (caspase-3/7; 0.1 μg/ml): 95%
Normalized data: Mean (caspase-3/7 activity/proteins) (caspase-3/7; 0.1 μg/ml): 84209 AU/mg
Caspase-3/7 activity (Fluorescence 380 nm/440 nm) (caspase-3/7; 0.1 μg/ml): 1474 AU and 1382 AU and 1558 AU
Caspase-3/7 activity - Background (Fluorescence 380 nm/440 nm) (caspase-3/7; 0.1 μg/ml): 1157 AU and 1065 AU and 1241 AU
Caspese-3/7 activity/proteins (caspase-3/7; 0.1 μg/ml): 83312 AU/mg and 79809 AU/mg and 89506 AU/mg
% inhibition (caspase-3/7; 1 μg/ml): −3%
% stimulated control (caspase-3/7; 1 μg/ml): 103%
Normalized data: Mean (caspase-3/7 activity/proteins) (caspase-3/7; 1 μg/ml): 90527 AU/mg
Caspase-3/7 activity (Fluorescence 380 nm/440 nm) (caspase-3/7; 1 μg/ml): 1423 AU and 1604 AU and 1486 AU
Caspase-3/7 activity - Background (Fluorescence 380 nm/440 nm) (caspase-3/7; 1 μg/ml): 1106 AU and 1287 AU and 1169 AU
Caspese-3/7 activity/proteins (caspase-3/7; 1 μg/ml): 87358 AU/mg and 96851 AU/mg and 87370 AU/mg
% inhibition (caspase-3/7; 10 μg/ml): 2%
% stimulated control (caspase-3/7; 10 μg/ml): 98%
Normalized data: Mean (caspase-3/7 activity/proteins) (caspase-3/7; 10 μg/ml): 86723 AU/mg
Caspase-3/7 activity (Fluorescence 380 nm/440 nm) (caspase-3/7; 10 μg/ml): 1335 AU and 1264 AU and 1458 AU
Caspase-3/7 activity - Background (Fluorescence 380 nm/440 nm) (caspase-3/7; 10 μg/ml): 1018 AU and 947 AU and 1141 AU
Caspese-3/7 activity/proteins (caspase-3/7; 10 μg/ml): 78044 AU/mg and 76787 AU/mg and 105337 AU/mg
% inhibition (caspase-3/7; 100 μg/ml): 61%
% stimulated control (caspase-3/7; 100 μg/ml): 45%
Normalized data: Mean (caspase-3/7 activity/proteins) (caspase-3/7; 100 μg/ml): 39319 AU/mg
effect on caspase-3/7 activity (in words) (caspase-3/7; 100 μg/ml): clear inhibitory effect
Caspase-3/7 activity (Fluorescence 380 nm/440 nm) (caspase-3/7; 100 μg/ml): 807 AU and 843 AU and 1068 AU
Caspase-3/7 activity - Background (Fluorescence 380 nm/440 nm) (caspase-3/7; 100 μg/ml): 490 AU and 526 AU and 751 AU
Caspese-3/7 activity/proteins (caspase-3/7; 100 μg/ml): 29572 AU/mg and 37623 AU/mg and 50763 AU/mg
effect on caspase-3/7 activity (in words) (caspase-3/7; tested from 0.001 to 10 μg/ml): no effect
